Experiments:
GSK-3β = molecular target: T1, GSK-3β (Homo sapiens, UniProt P49841); experiment: GSK-3β kinase inhibition (GSK3β Assay Kit, BPS Biosciences); format: biochemical; settings: mean ± SD of three separate experiments
T1 construct: purchased BPS Biosciences, San Diego, CA, USA 79700
Procedure: (§1) 2. CDK2/GSK-3β Kinase Inhibitory Activities
(§2) The CDK2 and GSK-3β inhibitory activities were determined for hybrids 5a-g using the CDK2
(§3) Kinase Enzyme System (catalog No. V2971) (Promega, Milan, Italy), and GSK3β Assay Kit

MCF-7 cells [1] = experiment: Annexin V-FITC/PI dual staining apoptosis assay in MCF-7 cells; format: cell-based, human; settings: at IC50 concentration; for Late Apoptosis (Upper Right %): control 0.19; for Early Apoptosis (Lower Right %): control 0.63; for Total apoptosis (L.R % + U.R %): control 0.82; for Necrosis: upper left quadrant, control 0.49
Procedure: To investigate further the effect of the promising compounds 5d, 5e, and 5f on cell apoptosis, Annexin V-FITC/propidium iodide dual staining assay was performed according to the reported method. The morphological markers of apoptosis in the breast cancer MCF-7 cell line were examined before and after treatment with the compounds of interest. Apoptosis assay depends on the translocation of the phosphatidylserine (PS) phospholipid to the cell surface in cells undergoing apoptosis which can be easily detected by staining with the fluorescent conjugate of annexin V followed by flow cytometry analysis. Simultaneously, MCF-7 cells were stained with propidium iodide (PI) which could enter cells with damaged plasma membranes only. This enables the discrimination between early apoptotic cells (positive for PS, but negative for PI) from late apoptotic and necrotic cells (positive for both PS and PI). […]
4. Annexin V-FITC Apoptosis Assay
Phosphatidylserine externalization was assayed using Annexin V-FITC/PI apoptosis detection kit (BD Biosciences, USA) according to the manufacturer’s instructions. Breast cancer MCF-7 cells were cultured to a monolayer then treated with hybrids (5d, 5e and 5f) at their IC50 concentration. Briefly, cells were then harvested via trypsinization, and rinsed twice in PBS followed by binding buffer. Moreover, cells were re-suspended in 100 μL of binding buffer with the addition of 1 μL of FITC-Annexin V followed by an incubation period of 30 min at 4 °C. Cells were then rinsed in binding buffer and resuspended in 150 μL of binding buffer with the addition of 1 μL of DAPI (1 μg/μL in PBS). Cells were then analyzed using the flow cytometer BD FACS Canto II and the results were interpreted with FlowJo7.6.4 software (Tree Star, Ashland, OR,

CDK2 = molecular target: T2, CDK2 (Homo sapiens, UniProt P24941); experiment: CDK2 kinase inhibition (CDK2 Kinase Enzyme System, Promega); format: biochemical; settings: mean ± SD of three separate experiments
T2 construct: purchased Promega, Milan, Italy V2971
Procedure: as §1, §2, §3

MCF-10A = experiment: MTT cytotoxicity towards non-tumorigenic breast cells MCF-10A; format: cell-based, human; settings: for IC50: Homo sapiens, MCF-10A, MTT assay, non-tumorigenic breast cell line; for Mean tumour selectivity index (S.I.): IC50 for MCF-10A/IC50 average for (MCF-7 and T-47D)
Source text: In order to investigate their selectivity on cancer cells, hybrids 5d, 5e and 5f, endowed with dual growth inhibitory action against MCF-7 and T-47D cells, were assesses for their cytotoxic action towards the non-tumorigenic breast cells (MCF-10A), via the MTT assay. The obtained IC50s and the calculated mean tumour selectivity index (S.I.); IC50 for MCF-10A/IC50 average for (MCF-7 and T-47D) have been presented in Table 5.
(§4) 1. Anti-proliferative activity toward human breast cell lines
(§5) The two examined human breast cancer cell lines (T-47D and MCF-7) have been obtained from American Type Culture Collection (ATCC). Cells lines were maintained as monolayers in Dulbecco’s Modified Eagle’s Medium (DMEM) supplemented with 10% FBS, 2 mM L-glutamine, 100 U/ml penicillin and 100µg/ml streptomycin sulfate. Cells were sub-cultured with trypsine /EDTA solution, counted with haemocytometer and plated onto 96-well plates (5000 cells/well) and left overnight to form a semi-confluent monolayer. Cell monolayers were treated in quadrates with vehicle (DMSO, 0.1% v/v), test samples or Adriamycin as positive control for an exposure time of 48 h. At the end of exposure, MTT solution in PBS (5 mg/ml) was then added to all well including no cell blank and left to incubate for 90 min. The formation of formazan crystals were visually confirmed using phase contract microscopy. DMSO (100 µl/well) was added to dissolve the formazan crystals with shaking for 10 min after which the absorbance was read at 590 nm against no cell blanks on a FLuo Star Optima microplate reader (BMG technologies, Germany).
Cell proliferation was calculated comparing the OD values of the DMSO control wells and those of the samples represented as % proliferation to the control. Dose-response experiment was performed on samples producing > or =50% loss of cell proliferation using five serial 2-fold dilutions (50, 25, 12.5, 6.25 and 3.125 µM) of the sample. IC50 values (concentration of sample causing 50% loss of cell proliferation of the vehicle control) were calculated using non-linear regression curve fitting of the dose response plots on GraphPad Prism V.6.0 software. […]

T-47D = experiment: MTT anti-proliferative assay, T-47D breast cancer cells; format: cell-based; settings: Homo sapiens, T47D, 48 h exposure, mean ± SD of three separate experiments
Procedure: as §4, §5
(§6) Cell proliferation was calculated comparing the OD values of the DMSO control wells and those of the samples represented as % proliferation to the control. Dose-response experiment was performed on samples producing > or =50% loss of cell proliferation using five serial 2-fold […]
(§7) IC50 values (concentration of sample causing 50% loss of cell proliferation of the vehicle control) were calculated using non-linear regression curve fitting of the dose response plots on GraphPad Prism V.6.0 software. […]

MCF-7 = experiment: MTT anti-proliferative assay, MCF-7 breast cancer cells; format: cell-based; settings: Homo sapiens, MCF7, 48 h exposure, mean ± SD of three separate experiments
Procedure: as §4, §5, §6, §7

MCF-7 cells [2] = experiment: Cell cycle analysis by flow cytometry (PI stain) in MCF-7 cells; format: cell-based, human; settings: 24 h, at IC50 concentration; for %Sub-G1: control 1.29; for %G2/M: control 11.3; for %S: control 33.82; for %G0-G1: control 53.59
Procedure: Compounds showing promising antiproliferative as well as kinase inhibitory activity 5d, 5e and 5f were further investigated for their influence on the cell cycle progression by flow cytometry analysis using propidium iodide (PI) stain. Cell cycle parameters were compared for the breast cancer MCF-7 cells with DMSO as control and after treatment with the compounds of interest and incubation for 24 h, and the results were presented in Figure 5 and Table 3. […]
concentration), and then cells were washed twice with ice-cold phosphate buffered saline (PBS).
Subsequently, the treated cells were collected by centrifugation, fixed in ice-cold 70% (v/v) ethanol, washed with PBS, re-suspended with 100 μg/mL RNase, stained with 40 μg/mL PI, and analyzed by flow cytometry using FACS Calibur (Becton Dickinson, BD, Franklin Lakes, NJ,

T1 sequence (P49841 whole entry): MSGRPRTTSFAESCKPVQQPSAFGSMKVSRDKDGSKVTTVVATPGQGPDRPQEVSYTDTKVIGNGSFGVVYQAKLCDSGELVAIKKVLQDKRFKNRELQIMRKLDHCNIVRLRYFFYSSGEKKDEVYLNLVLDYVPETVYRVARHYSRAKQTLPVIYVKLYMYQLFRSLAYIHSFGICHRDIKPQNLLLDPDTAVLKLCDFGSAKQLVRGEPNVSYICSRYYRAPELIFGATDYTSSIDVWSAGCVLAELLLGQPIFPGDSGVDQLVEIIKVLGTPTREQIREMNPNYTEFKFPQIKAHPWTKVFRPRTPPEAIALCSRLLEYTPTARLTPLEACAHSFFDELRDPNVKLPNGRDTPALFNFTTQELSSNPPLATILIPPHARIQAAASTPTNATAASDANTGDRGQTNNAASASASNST

SMILES: Cc1ccc2c(c1)C(=NNC(=O)c1cc3cc(Br)ccc3o1)C(=O)N2 [5e, 5-Bromo-N'-(5-methyl-2-oxoindolin-3-ylidene)benzofuran-2-carbohydrazide]
- IC50 (GSK-3β): 0.0808 ± 0.0044 µM
- Late Apoptosis (Upper Right %) (MCF-7 cells [1]): 15.08%
- Early Apoptosis (Lower Right %) (MCF-7 cells [1]): 4.66%
- Total apoptosis (L.R % + U.R %) (MCF-7 cells [1]): 19.74%
- Necrosis (MCF-7 cells [1]): 1.81%
- IC50 (CDK2): 0.177 ± 0.0096 µM
- IC50 (MCF-10A): 23.6 ± 0.86 µM
- Mean tumour selectivity index (S.I.) (MCF-10A): 5.9
- melting point: > 300 °C
- IC50 (T-47D): 4.53 ± 0.14 µM
- IC50 (MCF-7): 3.45 ± 0.1 µM
- %Sub-G1 (MCF-7 cells [2]): 17.73%
- %G2/M (MCF-7 cells [2]): 29.21%
- %S (MCF-7 cells [2]): 23.21%
- %G0-G1 (MCF-7 cells [2]): 29.85%

SMILES: COc1ccc2c(c1)C(=NNC(=O)c1cc3cc(Br)ccc3o1)C(=O)N2 [5f, 5-Bromo-N'-(5-methoxy-2-oxoindolin-3-ylidene)benzofuran-2-carbohydrazide]
- IC50 (GSK-3β): 0.0401 ± 0.0022 µM
- Late Apoptosis (Upper Right %) (MCF-7 cells [1]): 22.16%
- Early Apoptosis (Lower Right %) (MCF-7 cells [1]): 3.94%
- Total apoptosis (L.R % + U.R %) (MCF-7 cells [1]): 26.10%
- Necrosis (MCF-7 cells [1]): 2.14%
- IC50 (CDK2): 0.0528 ± 0.0029 µM
- IC50 (MCF-10A): 40 ± 1.42 µM
- Mean tumour selectivity index (S.I.) (MCF-10A): 7.9
- melting point: > 300 °C
- IC50 (T-47D): 7.8 ± 0.25 µM
- IC50 (MCF-7): 2.27 ± 0.06 µM
- %Sub-G1 (MCF-7 cells [2]): 22.02%
- %G2/M (MCF-7 cells [2]): 37.82%
- %S (MCF-7 cells [2]): 17.88%
- %G0-G1 (MCF-7 cells [2]): 22.28%
